Data on two molecules can be found in article PMC11017246, “Discovery of GLPG2737, a Potent Type 2 Corrector of CFTR for the Treatment of Cystic Fibrosis in Combination with a Potentiator and a Type 1 Co-corrector” (Journal of Medicinal Chemistry, 2024).

Data set [1] can be described thus: Plasma protein binding, human. In kind it is in vitro ADME. The settings on record: human, plasma, pH 7.4, human plasma; read-out: PPB % human (converted). Here is the method: (§1) Plasma protein binding was determined by equilibrium dialysis using the Pierce Red Device plate with inserts (ThermoScientific). Test compound at 5 μM (0.5% DMSO) spiked in freshly thawed human, rat, mouse, or dog plasma (Bioreclamation INC, Westbury, NY, USA) was dialyzed against phosphate-buffered saline (PBS, pH 7.4) at 37 °C under shaking for 4 h. Aliquots were taken from each side of the well, and matrix matched. Proteins were precipitated with an excess of acetonitrile, samples were mixed and centrifuged, and the supernatant was analyzed by liquid chromatography–mass spectrometry/mass spectrometry (LC–MS/MS). Addition of compound peak areas in the buffer chamber and the plasma chamber was considered to be 100% compound.

The nature of a further data set: PK rat. In kind it is in vivo. Here is the method: These studies were performed with naïve male Sprague–Dawley rats (Janvier France, 6–8 weeks old). Rats were dosed iv via a bolus in the tail vein with a dose level of 0.1 mg/kg or orally as a single esophageal gavage with a dose level of 5 mg/kg. For the iv route, the compound was formulated in PEG200/water (60/40; v/v). For the oral route, the compound was formulated in MC 0.5% (2/98) as a homogeneous suspension. Before the oral dosing, the animals were deprived of food for at least 12 h before compound administration until 3 h after administration. All animals had free access to the tap water. Blood samples were collected under light anesthesia and placed into tubes containing Li-heparin as an anticoagulant. Blood samples were collected up to 24 h after dosing (n = 3 rats per route). After centrifugation, the resulting plasma samples were assayed by LC-MS/MS with a nongood laboratory practice (non-GLP)-validated method. PK parameters were calculated by noncompartmental analysis using WinNonlin software (Certara, Princeton, NJ, USA).

The target of a further data set is CYP3A4 enzyme (Homo sapiens, UniProt P08684). As to the kind of experiment: Mechanism-based inactivation of CYP3A4. In kind it is in vitro ADME.
The next data set addresses T1, CYP2C9 (Homo sapiens, UniProt P11712).
T1 construct: tissue BD Gentest; host or cells: human liver microsomes
As to the kind of experiment: CYP reversible inhibition in HLM, CYP2C9. Format: in vitro ADME. Particulars: probe not given; read-out: CYP inhibition IC50, 2C9. The procedure:
(§2) Test compounds were diluted in methanol and then added to mixture containing 50 mM potassium phosphate buffer, pH 7.4, human liver microsomes (BD Gentest) and probe substrate. After prewarming for 5 min at 37 °C, the reaction was started by adding cofactor mix (7.65 mg/mL glucose-6-phosphate, 1.7 mg/mL NADP, 6 U/mL of glucose-6-phosphate dehydrogenase), resulting in seven final concentrations of test compounds in the range 0.14–100 μM (2% methanol). Isoform specific conditions regarding probe substrate and microsomal protein concentrations are available in Table 2. Final concentrations of cofactor mix components were as follows: 1.56 mg/mL glucose-6-phosphate, 0.34 mg/mL NADP, and 1.2 U/mL glucose-6-phosphate dehydrogenase. After incubation at 37 °C, the reaction was terminated with acetonitrile:methanol (2:1) solution with internal standard. Samples were centrifuged, and the supernatant fractions were analyzed by LC-MS/MS. The instrument responses (test compounds and internal standard peak areas) were referenced to those for solvent controls (assumed as 100%) in order to determine the percentage reduction in probe metabolism. Percent of control activity vs concentration plots were generated and fitted using GraphPad Prism software to generate IC50.

Data set [2] concerns cytochrome P450 subtypes except 2C9. Put plainly: CYP inhibition, all subtypes except 2C9. Format: in vitro ADME. The settings on record: human, liver microsomes, pH 7.4. Here is the method:
as §2
In general terms: Microsomes from liver hold many membrane-bound enzymes, among them those of drug oxidation.

A short description of data set [3]: Plasma protein binding, rat. Particulars: pH 7.4, read-out: PPB % rat (converted). In kind it is in vitro ADME. The procedure: as §1
The test system of a further data set is CYP3A4. As to the kind of experiment: CYP3A4 induction (mRNA) in human hepatocytes. Format: in vitro ADME. Particulars: for CYP (3A4) mRNA induction, result in words: compared with positive control rifampicin. Here is the method: Cryopreserved human hepatocytes from a single donor were seeded at 0.1 × 10^6 cells/well. The next day, cells were dosed with test compound in assay medium (final test compound concentration 10 μM; final DMSO concentration 0.1%). Positive control inducer, rifampicin, for CYP3A4, was incubated alongside the test compound. Negative control wells were included where the test compound is replaced by vehicle solvent (0.1% DMSO in assay medium). Each test or control compound was dosed in triplicate at a single concentration (10 μM). The cells were exposed to the solutions for 72 h with fresh solution added every 24 h. For mRNA assessment, all media was removed from each of the wells, and the cells were washed once. The cells were lysed, and total RNA was then isolated from the hepatocyte lysates. Reverse transcription was performed, and quantitative PCR analysis was performed on the resulting cDNA, using gene-specific primer probe sets for CYP3A4 target cDNA and endogenous control. Samples were analyzed using an ABI 7900 HT real time PCR system. For mRNA assessment, relative fold mRNA expression was determined based on the threshold cycle (CT) data of target gene relative to endogenous control for each reaction and normalized to negative control using the 2-ΔΔCT method. Data were expressed as fold activation relative to the vehicle control and, as a percent, to the 10 μM rifampicin using the following formula: % of positive control = ((fold increase of the cpd relative to vehicle control – 1)/(fold increase of the rifampicin at 10 μM – 1)) × 100.

The next data set concerns the target T2, ΔF508 CFTR (Homo sapiens, UniProt P13569, DEL508-508).
T2 construct: host or cells: CFBE41o- TetON cells, expression induced with doxycycline
Put plainly: TECC (transepithelial clamp circuit) in primary CF-derived HBE cells. Format: cell-based. The procedure:
Bronchial epithelial cells isolated from the lungs of patients with CF homozygous for the ΔF508 CFTR mutation were obtained from McGill University (Montreal, QC, Canada) or the University of North Carolina (Chapel Hill, NC, United States). Cells were isolated from lungs obtained from donors undergoing planned transplantation. These primary cells were cultured directly on type IV collagen-coated polycarbonate Transwell supports with a diameter of 6.5 mm and pore size of 0.4 μm (Costar, #3397) for 18–25 days in an air–liquid interface, essentially as previously described for TECC.[23]
Twenty-four hours prior to the electrophysiological recording, corrector and/or potentiator compounds were added on both the apical and basolateral sides. TECC recordings were performed by using the TECC instrument developed and sold by EP Design (Bertem, Belgium). During the recording, the epithelial cells were bathed in a NaCl-Ringer solution (120 mM NaCl, 20 mM HEPES, 1.2 mM CaCl2, 1.2 mM MgCl2, 0.8 mM KH2PO4, 0.8 mM K2HPO4, 5 mM glucose, pH 7.4) on both the basolateral (640 μL) and the apical (160 μL) sides and kept at 37 °C. Corrector and potentiator compounds were readded at the same concentration used during the 24 h pretreatment. Apical amiloride was used to inhibit the endogenous ENaC currents (100 μM), while forskolin (10 μM) was applied on both the apical and basolateral sides to stimulate CFTR. Measurements were done during a 20 min time frame with recordings every 2 min. The transepithelial potential and transepithelial resistance were measured in an open circuit and transformed to Ieq using Ohm’s law. The maximal increase in Ieq (ΔIeq, the difference in current before and after forskolin or potentiator treatment) was used as a measure for the increased CFTR activity. EC50 values were generated by measuring the impact of different concentrations of compounds on ΔIeq in primary cells. For this purpose, each transwell was treated with a different compound concentration. CFTRInh-172 was added apically at 10 μM to assess the specificity of the response. Dose response data was fitted using a 3-parameter hill function of the form Response = Bottom + (Top – Bottom)/(1 + (EC50/concentration)) to determine EC50 values. Percentage efficacy was calculated using the following formula: (max response – neg control)/(C1 response – neg control).

Data set [4] is described as follows: Plasma protein binding, dog. Format: in vitro ADME. The settings on record: dog, plasma, pH 7.4, dog plasma; read-out: PPB % dog (converted). The procedure: as §1
The next data set is described as follows: PK dog. Format: in vivo. The settings on record: iv. Here is the method:
These studies were performed with non-naïve male Beagle dogs (age 13.8 months old, origin: Marshall US, North Rose, NY 14516, USA; age 15.8 months old, origin: Harlan; age 17.7 months old, origin: Harlan). Dogs (n = 3) were dosed iv via a 10 min infusion via a catheter with a dose level of 1 mg/kg. After a washout of 3 days, they were dosed orally as a single gavage with a dose level of 5 or 1 mg/kg in PEG400/MC 0.5% or MC 0.5%. Before administration by the po route, animals were fasted for a period of at least 12 h before treatment, and food was given just after the 3 h of blood sampling. All animals had free access to tap water. Blood samples were taken without an anesthetic from a jugular or cephalic vein into tubes containing lithium heparin as an anticoagulant. Blood samples were taken up to 24 h after the start of the infusion. After centrifugation, the resulting plasma samples were assayed by LC-MS/MS with a nongood laboratory practice (non-GLP)-validated method. PK parameters were calculated by noncompartmental analysis using WinNonlin software (Certara, Princeton, NJ, USA).

T2 sequence (P13569 with tags, fused parts or gaps DEL508-508): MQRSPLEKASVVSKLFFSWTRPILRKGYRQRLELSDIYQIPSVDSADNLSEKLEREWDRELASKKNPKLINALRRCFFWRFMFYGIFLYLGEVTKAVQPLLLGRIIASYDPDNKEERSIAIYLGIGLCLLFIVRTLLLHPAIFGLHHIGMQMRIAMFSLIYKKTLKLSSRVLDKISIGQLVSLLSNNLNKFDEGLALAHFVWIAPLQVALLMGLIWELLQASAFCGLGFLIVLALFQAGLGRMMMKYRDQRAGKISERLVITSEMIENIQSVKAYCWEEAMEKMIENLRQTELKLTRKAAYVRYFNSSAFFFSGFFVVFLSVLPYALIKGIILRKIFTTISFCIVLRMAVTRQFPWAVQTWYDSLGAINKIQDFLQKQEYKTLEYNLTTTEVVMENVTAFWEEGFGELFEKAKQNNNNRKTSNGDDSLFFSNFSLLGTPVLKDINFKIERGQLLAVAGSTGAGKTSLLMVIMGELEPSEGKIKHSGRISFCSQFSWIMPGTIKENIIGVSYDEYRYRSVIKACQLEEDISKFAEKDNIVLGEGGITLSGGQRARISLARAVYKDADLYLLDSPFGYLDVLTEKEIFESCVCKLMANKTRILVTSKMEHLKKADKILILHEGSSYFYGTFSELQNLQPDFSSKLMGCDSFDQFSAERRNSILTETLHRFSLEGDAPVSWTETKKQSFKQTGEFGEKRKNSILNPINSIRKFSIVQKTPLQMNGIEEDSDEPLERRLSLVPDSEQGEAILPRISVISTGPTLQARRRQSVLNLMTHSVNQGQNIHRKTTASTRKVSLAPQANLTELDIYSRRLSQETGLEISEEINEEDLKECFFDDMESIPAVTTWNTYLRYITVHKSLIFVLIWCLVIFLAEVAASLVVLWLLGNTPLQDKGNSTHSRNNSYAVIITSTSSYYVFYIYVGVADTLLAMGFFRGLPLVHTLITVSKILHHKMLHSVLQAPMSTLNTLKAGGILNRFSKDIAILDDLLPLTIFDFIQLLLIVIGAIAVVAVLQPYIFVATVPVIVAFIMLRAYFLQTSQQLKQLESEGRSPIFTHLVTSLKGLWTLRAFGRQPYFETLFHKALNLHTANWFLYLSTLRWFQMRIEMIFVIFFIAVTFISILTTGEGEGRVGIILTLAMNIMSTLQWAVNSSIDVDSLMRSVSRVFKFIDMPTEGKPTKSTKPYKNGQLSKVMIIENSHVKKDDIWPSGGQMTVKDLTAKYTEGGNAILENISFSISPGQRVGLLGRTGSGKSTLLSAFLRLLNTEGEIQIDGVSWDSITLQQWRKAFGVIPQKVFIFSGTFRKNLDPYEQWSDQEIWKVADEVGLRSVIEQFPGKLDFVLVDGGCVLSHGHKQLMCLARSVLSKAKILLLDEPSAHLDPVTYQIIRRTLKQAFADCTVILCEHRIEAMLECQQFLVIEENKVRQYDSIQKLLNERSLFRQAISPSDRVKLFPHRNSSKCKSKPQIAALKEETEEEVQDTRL
T1 sequence (P11712 whole entry): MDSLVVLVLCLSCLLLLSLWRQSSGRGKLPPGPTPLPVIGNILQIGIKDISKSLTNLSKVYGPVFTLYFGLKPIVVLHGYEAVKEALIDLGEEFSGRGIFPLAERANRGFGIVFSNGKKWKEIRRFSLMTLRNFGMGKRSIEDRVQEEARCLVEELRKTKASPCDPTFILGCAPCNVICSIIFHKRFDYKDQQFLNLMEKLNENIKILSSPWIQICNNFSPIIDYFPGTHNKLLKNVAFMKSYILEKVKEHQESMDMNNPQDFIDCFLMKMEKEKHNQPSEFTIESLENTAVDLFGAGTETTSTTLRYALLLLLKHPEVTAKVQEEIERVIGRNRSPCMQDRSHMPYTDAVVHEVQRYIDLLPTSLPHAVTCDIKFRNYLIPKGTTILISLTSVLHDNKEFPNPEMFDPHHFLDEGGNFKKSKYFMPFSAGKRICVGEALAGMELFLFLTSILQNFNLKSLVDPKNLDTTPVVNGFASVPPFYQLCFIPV
Sequence of CYP3A4 enzyme (P08684 whole entry): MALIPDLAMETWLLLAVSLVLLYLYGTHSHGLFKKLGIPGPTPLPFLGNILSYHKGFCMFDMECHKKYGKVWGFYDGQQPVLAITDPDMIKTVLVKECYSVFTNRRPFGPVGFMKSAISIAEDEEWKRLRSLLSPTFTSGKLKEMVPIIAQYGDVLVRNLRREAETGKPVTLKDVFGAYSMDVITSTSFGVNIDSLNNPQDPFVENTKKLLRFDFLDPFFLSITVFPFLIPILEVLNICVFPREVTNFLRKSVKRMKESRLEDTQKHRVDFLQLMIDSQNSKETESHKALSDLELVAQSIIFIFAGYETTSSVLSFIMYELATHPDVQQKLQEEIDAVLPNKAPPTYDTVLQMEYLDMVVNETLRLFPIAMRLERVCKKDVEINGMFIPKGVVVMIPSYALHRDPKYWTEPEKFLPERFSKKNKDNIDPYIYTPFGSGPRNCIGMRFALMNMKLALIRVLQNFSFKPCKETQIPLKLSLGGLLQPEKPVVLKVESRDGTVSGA

For orientation: bioavailability means the share of a dose that reaches the circulation, judged against a reference dose that is usually intravenous. The low end stands for poor availability, the high end for good availability. In general, IC50 refers to the point on the concentration scale where inhibition reaches its midpoint. With `CS(=O)(=O)NC(=O)c1cc(-c2ccc(N3CCC(C#N)CC3)nc2)c2c(C3CCC3)nn(-c3ccccc3)c2n1` [Compound 45], the results for the fraction unbound at 4 h, 5 μM in data set [1] and in [3] were 0.0035 and 0.0003, respectively. Moreover, the clearance in the data set “PK rat” (male, Sprague-Dawley, plasma, 1 mg/kg, iv dosing, read-out: plasma clearance (converted)) was 0.41 mL/min/kg; in the data set “PK rat” (male, Sprague-Dawley, plasma, iv, 0.1 mg/kg, formula-strings file, unit inferred, read-out: Cl (converted)), 0.41 mL/min/kg. The molecule further yielded a bioavailability at 24 h in the data set “PK rat” (male, Sprague-Dawley, plasma, 5 mg/kg po) of 63.4%. For the same molecule, the Vd came to 0.195 L/kg in “PK rat” (male, Sprague-Dawley, plasma, iv, 0.1 mg/kg, formula-strings file, unit inferred, read-out: Vss) and 0.2 L/kg in the data set “PK rat” (male, Sprague-Dawley, plasma, iv, 1 mg/kg, 1 mg/kg iv, read-out: Vss). Besides, the “mechanism-based inactivation of CYP3A4” value on CYP3A4 enzyme is given as “devoid of mechanism-based inactivation”. The figures for the IC50 (at CYP2C9; in data set [2]) were 187 nM and no less than 50000 nM, respectively. Also, the “CYP (3A4) mRNA induction, result in words” value in the data set with CYP3A4 is on record as “low CYP3A4 induction”.

The EC50 is the concentration needed to bring the measured effect to its halfway point. As to `CS(=O)(=O)NC(=O)c1cc(N2CCC(N3CCOCC3)CC2)c2c(C3CCC3)nn(-c3ccccc3)c2n1` [Compound 49], the fraction unbound at 4 h, 5 μM in data set [1] was 0.01; in [3], 0.01; in data set [4], 0.015. The CLu rat in the data set “PK rat” (iv, unbound clearance) is 70 mL/min/kg. The clearance in “PK rat” (male, Sprague-Dawley, plasma, 0.1 mg/kg, iv, read-out: CLp rat (converted)) is 1 mL/min/kg; in the data set “PK dog” (male, beagle, plasma, 1 mg/kg, read-out: CLp dog (converted)), 0.333 mL/min/kg. Also, the half-life in the data set “PK rat” (male, Sprague-Dawley, plasma, 0.1 mg/kg, iv, read-out: t1/2 iv rat (converted)) is 4.7 h; in the data set “PK dog” (male, beagle, plasma, 1 mg/kg, read-out: t1/2 iv dog (converted)), 6.6 h. Further, the Vd turned out to be 0.4 L/kg in “PK rat” (male, Sprague-Dawley, plasma, iv, 0.1 mg/kg, iv, read-out: Vss rat) and 0.2 L/kg in “PK dog” (male, beagle, plasma, 1 mg/kg, read-out: Vss dog). At ΔF508 CFTR (GLPG1837 potency in triple combination), the “shift of the potentiator activity” value is recorded as 1 log unit. Also, the Emax at ΔF508 CFTR (primary ΔF508 homozygous HBE cells, 24 h incubation, with GLPG2222, read-out: TECC HBE with GLPG2222 % max activation) was determined as 534%. For the same molecule, the EC50 at ΔF508 CFTR (primary ΔF508 homozygous HBE cells, 24 h incubation, with GLPG2222, read-out: TECC HBE with GLPG2222 EC50) was determined as 39 nM. In “PK dog” (unbound clearance), this molecule had a CLu dog of 8.3 mL/min/kg. Further, the “CYP induction @10 μM (mRNA) % rifampicin” value in the data set with CYP3A4 (data generated by AbbVie team) is reported as 6.7%; with CYP3A4 (data generated by Galapagos), 12%. Also, the “CYP (3A4) mRNA induction, result in words” value in the data set on CYP3A4 is reported as “devoid of any CYP induction liability”.
